This assay addresses T1, met (HGF receptor) in human gastric cancer cells MKN45 (Homo sapiens, UniProt P08581).
T1 construct: endogenous in cells; host or cells: MKN45 human gastric cancer cells
The experiment in a line: Inhibitory activity against met-autophosphorylation using ELISA method (2), MKN45 cells, HGF-independent. The format is cell-based. As to the method:
Cells were cultured with RPMI medium containing 0.1% fetal calf serum in 96-well flat-bottom plate in an amount of 3×10^4 per well, and were incubated at 37° C. overnight. The medium was then replaced by a fresh RPMI medium containing 0.1% fetal calf serum. A solution of the test compound in dimethyl sulfoxide was added to each well, and the incuvation was continued at 37° C. for additional one hr. The medium was removed, the cells were washed with phosphate buffered saline (pH 7.4), and 50 μl of a lysis buffer (20 mM HEPES (pH 7.4), 150 mM NaCl, 0.2% Triton X-100, 10% glycerol, 5 mM sodium orthovanadylate, 5 mM disodium ethylenediaminetetraacetate, and 2 mM Na4P2O7) was then added thereto. The mixture was shaken at 4° C. for 2 hr to prepare a cell extract.
Separately, phosphate buffered saline (50 μl, pH 7.4) containing 5 μg/ml of anti-phospho-tyrosine antibody (PY20; purchased from Transduction Laboratories) was added to a microplate for ELISA (Maxisorp; purchased from NUNC), followed by gentle agitation at 4° C. overnight to coat the surface of the wells with the antibody. After washing of the plate, 300 μl of a blocking solution was added, followed by gentle agitation at room temperature for 2 hr to perform blocking. After washing, the whole quantity of the cell extract was transferred to the wells, and the plate was then allowed to stand at 4° C. overnight. After washing, an anti-HGF receptor antibody (h-Met (C-12), purchased from Santa Cruz Biotechnology) was allowed to react at room temperature for one hr, and, after washing, a peroxidase-labeled anti-rabbit Ig antibody (purchased from Amersham) was allowed to react at room temperature for one hr. After washing, a chromophoric substrate for peroxidase (purchased from Sumitomo Bakelite Co., Ltd.) was added thereto to initiate a reaction. After a suitable level of color development, a reaction termination solution was added to stop the reaction, and the absorbance at 450 nm was measured with a microplate reader.
T1 sequence (P08581 25-1390): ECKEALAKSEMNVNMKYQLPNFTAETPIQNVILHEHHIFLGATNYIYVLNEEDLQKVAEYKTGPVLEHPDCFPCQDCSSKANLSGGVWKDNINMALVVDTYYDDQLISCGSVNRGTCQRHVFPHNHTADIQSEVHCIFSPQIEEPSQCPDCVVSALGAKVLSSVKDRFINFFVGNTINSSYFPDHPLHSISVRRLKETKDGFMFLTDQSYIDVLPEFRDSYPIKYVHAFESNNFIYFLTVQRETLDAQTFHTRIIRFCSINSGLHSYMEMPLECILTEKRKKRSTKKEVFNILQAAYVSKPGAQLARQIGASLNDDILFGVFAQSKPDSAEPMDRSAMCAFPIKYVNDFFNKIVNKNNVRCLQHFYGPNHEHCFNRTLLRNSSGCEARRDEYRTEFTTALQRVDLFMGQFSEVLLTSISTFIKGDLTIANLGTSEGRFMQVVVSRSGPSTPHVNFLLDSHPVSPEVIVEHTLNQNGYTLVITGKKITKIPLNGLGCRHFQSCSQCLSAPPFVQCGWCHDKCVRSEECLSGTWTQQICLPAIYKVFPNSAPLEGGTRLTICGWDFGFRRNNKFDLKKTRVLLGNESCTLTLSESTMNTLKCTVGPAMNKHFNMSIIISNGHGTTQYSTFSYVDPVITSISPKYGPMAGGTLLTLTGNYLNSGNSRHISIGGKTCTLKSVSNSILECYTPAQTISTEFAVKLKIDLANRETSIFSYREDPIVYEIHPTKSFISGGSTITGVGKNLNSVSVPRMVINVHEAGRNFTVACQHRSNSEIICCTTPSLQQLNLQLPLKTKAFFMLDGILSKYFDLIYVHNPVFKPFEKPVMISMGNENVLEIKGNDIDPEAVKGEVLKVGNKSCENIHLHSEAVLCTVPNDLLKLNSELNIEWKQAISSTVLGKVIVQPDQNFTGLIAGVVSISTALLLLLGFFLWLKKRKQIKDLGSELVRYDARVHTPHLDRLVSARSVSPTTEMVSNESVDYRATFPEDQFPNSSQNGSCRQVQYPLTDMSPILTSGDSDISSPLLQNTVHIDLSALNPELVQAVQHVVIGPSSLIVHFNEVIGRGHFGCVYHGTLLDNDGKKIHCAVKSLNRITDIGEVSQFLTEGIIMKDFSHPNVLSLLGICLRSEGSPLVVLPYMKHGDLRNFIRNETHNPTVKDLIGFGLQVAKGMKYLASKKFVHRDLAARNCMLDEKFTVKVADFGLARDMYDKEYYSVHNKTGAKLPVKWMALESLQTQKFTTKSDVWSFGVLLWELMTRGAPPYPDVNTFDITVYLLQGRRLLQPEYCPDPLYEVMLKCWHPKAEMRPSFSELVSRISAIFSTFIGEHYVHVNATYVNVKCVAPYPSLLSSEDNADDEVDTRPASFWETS
Regarding `COc1cc2nccc(Oc3ccc(NC(=S)NC(=O)Cc4ccccc4Cl)cc3)c2cc1OC` [Example 59, 1-[2-(2-chlorophenyl)acetyl]-3-[4-(6,7-dimethoxyquinolin-4-yloxy)phenyl]thiourea], the IC50 stood at 193 nM. This counts as sub-micromolar.

As to `COc1cc2c(Oc3ccc(NC(=O)NC(=O)Cc4ccc(F)cc4)cc3F)ccnc2cc1OCCCN1CCCCC1` [Example 47, 1-{3-fluoro-4-[6-methoxy-7-(3-piperidin-1-yl-propoxy)quinolin-4-yloxy]phenyl}-3-[2-(4-fluorophenyl)-acetyl]urea], 215 nM corresponded to half-maximal inhibition (IC50). This IC50 and that of the molecule before are within 1.5-fold of each other.

`COc1cc2nccc(Oc3ccc(NC(=S)NC(=O)Cc4c(Cl)cccc4Cl)cc3F)c2cc1OC` [Example 97, 1-[2-(2,6-dichlorophenyl)acetyl]-3-[4-(6,7-dimethoxyquinolin-4-yloxy)-3-fluorophenyl]thiourea] gave an IC50 of 37.6 nM.

For `COc1cc2nccc(Oc3ccc(NC(=O)NC(=O)Cc4c(F)cccc4F)c(F)c3)c2cc1OC` [Example 134, 1-[2-(2,6-difluorophenyl)acetyl]-3-[4-(6,7-dimethoxyquinolin-4-yloxy)-2-fluorophenyl]urea], the 50% inhibitory concentration (IC50) stood at 232 nM.

Take `COc1cc2nccc(Oc3ccc(NC(=O)NC(=O)CN4CCc5ccccc54)cc3Cl)c2cc1OC` [Example 8, 1-[3-chloro-4-(6,7-dimethoxyquinolin-4-yloxy)-phenyl]-3-[2-(2,3-dihydro-1H-1-indol-1-yl)acetyl]-urea]: 298 nM corresponded to half-maximal inhibition (IC50).

`COc1cc2nccc(Oc3ccc(NC(=O)NC(=O)CSc4ccccc4)cc3)c2cc1OC` [Example 129, 1-[4-(6,7-dimethoxyquinolin-4-yloxy)phenyl]-3-(2-phenylsulfanylacetyl)urea] showed a half-inhibitory concentration (IC50) of 1010 nM. This IC50 lies about 3.4-fold higher than the previous one.

`COc1cc2nccc(Oc3ccc(NC(=S)NC(=O)CCC4CCCC4)cc3)c2cc1OC` [Example 161, 1-(3-cyclopentylpropionyl)-3-[4-(6,7-dimethoxyquinolin-4-yloxy)phenyl]thiourea] yielded a half-maximal inhibitory concentration (IC50) of 246 nM. This IC50 lies about 4.1-fold lower than the previous one.

`COc1cc2nccc(Oc3ccc(NC(=O)NC(=O)Cc4cc(F)ccc4F)cc3F)c2cc1OC` [Example 133, 1-[2-(2,5-difluorophenyl)acetyl]-3-[4-(6,7-dimethoxyquinolin-4-yloxy)-3-fluorophenyl]urea]: it took 261 nM to reach half-maximal inhibition (IC50). The IC50 values of the last two molecules are within 1.5-fold of each other.

`COc1cc2nccc(Oc3ccc(NC(=O)CC(=O)Nc4ccc(F)cc4)cc3)c2cc1OC` [Example 5, N-[4-(6,7-dimethoxyquinolin-4-yloxy)phenyl]-N′-(4-fluorophenyl)malonamide] returned an IC50 of 18.9 nM.

As to `COc1cc2nccc(Oc3ccc(NC(=O)NC(=O)Cc4cccs4)cc3)c2cc1OC` [Example 29, 1-[4-(6,7-dimethoxyquinolin-4-yloxy)phenyl]-3-(2-thiophen-2-ylacetyl)urea], the IC50 came to 37.1 nM.

With `COc1cc2nccc(Oc3ccc(NC(=O)NC(=O)Cc4ccc(F)c(F)c4)cc3)c2cc1OC` [Example 39, 1-[2-(3,4-difluorophenyl)acetyl]-3-[4-(6,7-dimethoxyquinolin-4-yloxy)phenyl]urea], half-maximal inhibition (IC50) required 114 nM.

Molecule `COc1ccccc1NC(=O)CC(=O)Nc1ccc(Oc2ccnc3cc(OC)c(OC)cc23)cc1` [Example 211, N-[4-(6,7-dimethoxyquinolin-4-yloxy)phenyl]-N′-(2-methoxyphenyl)malonamide] came in with an IC50 of 252 nM.

Regarding `COc1cc2nccc(Oc3ccc(NC(=S)NC(=O)Cc4cc(F)ccc4F)cc3F)c2cc1OC` [Example 195, 1-[2-(2,5-difluorophenyl)acetyl]-3-[4-(6,7-dimethoxyquinolin-4-yloxy)-3-fluorophenyl]thiourea], the IC50 was 291 nM.

For `COc1cc2nccc(Oc3ccc(NC(=S)NC(=O)CC4C5CCC4CC5)cc3)c2cc1OC` (stereo not drawn) [Example 88, 1-(2-bicyclo[2.2.1]hepto-7-ylacetyl)-3-[4-(6,7-dimethoxyquinolin-4-yloxy)phenyl]thiourea], the half-inhibitory concentration (IC50) was determined as 49.2 nM.

Consider `COc1cc2c(Oc3ccc(NC(=S)NC(=O)Cc4ccccc4)cc3F)ccnc2cc1OCCN1CCOCC1` [Example 276], for which it took 19 nM to reach half-maximal inhibition (IC50).

On to `COc1cc2nccc(Oc3ccc(NC(=S)NC(=O)Cc4ccc(Cl)cc4)cc3)c2cc1OC` [Example 187, 1-[2-(4-chlorophenyl)acetyl]-3-[4-(6,7-dimethoxyquinolin-4-yloxy)phenyl]thiourea], for which the half-inhibitory concentration (IC50) was 258 nM.

Consider `COc1cc2nccc(Oc3ccc(NC(=O)NC(=O)Nc4c(Cl)cccc4Cl)cc3)c2cc1OC` [Example 263, N-(2,6-dichlorophenyl)-({[4-(6,7-dimethoxy-quinolin-4-yloxy)anilino]carbonyl}amino)methanamide], for which half-maximal inhibition (IC50) required 483 nM.

Turning to `COc1cc2c(Oc3ccc(NC(=S)NC(=O)Cc4ccc(F)cc4)cc3F)ccnc2cc1OCC(O)CN1CCCC1` (stereo not drawn) [Example 330, 1-{3-Fluoro-4-[7-(2-hydroxy-3-pyrrolidin-1-yl-propoxy)-6-methoxy-quinolin-4-yloxy]-phenyl}-3-[2-(4-fluoro-phenyl)-acetyl]-thiourea], the IC50 came to 20.6 nM.

In turn, `COc1cc2nccc(Oc3ccc(NC(=O)NC(=O)Cc4ccc(C)cc4)c(F)c3)c2cc1OC` [Example 124, 1-[4-(6,7-dimethoxyquinolin-4-yloxy)-2-fluorophenyl]-3-(2-p-tolylacetyl)urea] yielded an IC50 of 264 nM.

In turn, `COc1cc2nccc(Oc3ccc(NC(=O)NC(=O)Nc4ccc(Cl)cc4)cc3)c2cc1OC` [Example 249, N-(4-chlorophenyl)-({[4-(6,7-dimethoxy-quinolin-4-yloxy)anilino]carbonyl}amino)methanamide] yielded an IC50 of 526 nM.

Molecule `COc1cc2nccc(Oc3ccc(NC(=S)NC(=O)Cc4ccc(C)cc4)cc3Cl)c2cc1OC` [Example 82, 1-[3-chloro-4-(6,7-dimethoxyquinolin-4-yloxy)-phenyl]-3-(2-p-tolylacetyl)thiourea] gave an IC50 of 74.3 nM.

For `CCCCNC(=O)CC(=O)Nc1ccc(Oc2ccnc3cc(OC)c(OC)cc23)cc1` [Example 209, N-butyl-N′-[4-(6,7-dimethoxyquinolin-4-yloxy)phenyl]malonamide], the midpoint of inhibition, the IC50, lay at 928 nM.

In turn, `COc1cc2nccc(Oc3ccc(NC(=S)NC(=O)Cc4cccs4)cc3)c2cc1OC` [Example 66, 1-[4-(6,7-dimethoxyquinolin-4-yloxy)phenyl]-3-(2-thiophen-2-ylacetyl)thiourea] returned an IC50 of 79.2 nM. This IC50 lies about 12-fold lower than the previous one.

As for `COc1cc2nccc(Oc3ccc(NC(=O)NC(=O)Cc4cc(F)ccc4F)c(F)c3)c2cc1OC` [Example 132], the IC50 was found to be 268 nM.

Molecule `COc1cc2c(Oc3ccc(NC(=O)NC(=O)Cc4ccc(F)cc4)cc3F)ccnc2cc1OCCN1CCOCC1` [Example 55, 1-{3-fluoro-4-[6-methoxy-7-(2-morpholin-4-yl-ethoxy)quinolin-4-yloxy]phenyl}-3-[2-(4-fluorophenyl)-acetyl]urea] showed an IC50 of 245 nM.

As to `COc1cc2nccc(Oc3ccc(NC(=S)NC(=O)Cc4ccccc4Cl)cc3Cl)c2cc1OC` [Example 183, 1-[3-chloro-4-(6,7-dimethoxyquinolin-4-yloxy)phenyl]-3-[2-(2-chlorophenyl)acetyl]thiourea], the IC50 was 224 nM.

Molecule `COc1cc2nccc(Oc3ccc(NC(=O)NC(=O)CN4CCSCC4)cc3Cl)c2cc1OC` [Example 131, 1-[3-chloro-4-(6,7-dimethoxyquinolin-4-yloxy)phenyl]-3-(2-thiomorpholin-4-ylacetyl)urea] came in with an IC50 of 2370 nM.

`COc1cc2nccc(Oc3ccc(NC(=S)NC(=O)c4cccc(C(F)(F)F)c4)cc3)c2cc1OC` [Example 145, 1-[4-(6,7-dimethoxyquinolin-4-yloxy)phenyl]-3-(3-trifluoromethyl-benzoyl)thiourea] had an IC50 of 364 nM.

`COc1cc2nccc(Oc3ccc(NC(=S)NC(=O)Cc4cccc(F)c4)c(F)c3)c2cc1OC` [Example 74, 1-[4-(6,7-dimethoxyquinolin-4-yloxy)-2-fluoro-phenyl]-3-[2-(3-fluorophenyl)acetyl]thiourea]: the IC50 came to 182 nM.

For `COC(=O)c1ccccc1NC(=O)NC(=O)Nc1ccc(Oc2ccnc3cc(OC)c(OC)cc23)cc1` [Example 245, methyl 2-({({[4-(6,7-dimethoxyquinolin-4-yloxy)anilino]carbonyl}amino)carbonyl}amino)benzoate], the IC50 was 308 nM.

On to `COc1cc2nccc(Oc3ccc(NC(=O)NC(=O)Nc4cccc5cccnc45)cc3)c2cc1OC` [Example 260, N-(8-quinolyl)-({[4-(6,7-dimethoxyquinolin-4-yloxy)anilino]carbonyl}amino)methanamide], for which the IC50 was found to be 2230 nM.

For the molecule `COc1cc2nccc(Oc3ccc(NC(=O)NC(=O)Cc4c(F)cccc4F)cc3F)c2cc1OC` [Example 135, 1-[2-(2,6-difluorophenyl)acetyl]-3-[4-(6,7-dimethoxyquinolin-4-yloxy)-3-fluorophenyl]urea], the IC50 turned out to be 226 nM.

For the molecule `COc1cc2nccc(Oc3ccc(NC(=O)NC(=O)Nc4ccccc4-n4cccc4)cc3)c2cc1OC` [Example 259, N-[2-(1H-1-pyrrolyl)phenyl]-({[4-(6,7-dimethoxyquinolin-4-yloxy)anilino]carbonyl}amino)-methanamide], the IC50 stood at 614 nM.

Source of the values: patent US8324245B2, “Quinoline derivative and quinazoline derivative inhibiting self-phosphorylation of hepatocytus proliferator receptor, and medicinal composition containing the same” (Kyowa Hakko Kirin Co., Ltd., priority 2001, dated 2012).
